Like-named read-outs stand apart in the source and are kept apart here.
Legend:
Septoria tritici [1] = assay: Microtest: activity against leaf blotch on wheat caused by Septoria tritici (Septtr); type: cell-based; details: relative growth vs active compound-free control (100%), 7 days after inoculation
Pyriculana oryzae = type: cell-based; details: relative growth vs control (100%), 7 days after inoculation
Pyrenophora teres = assay: Microtiter test: activity against net blotch Pyrenophora teres on barley (Pyrnte); type: cell-based
Protocol: M3 Activity against net blotch Pyrenophora teres on barley in the microtiter test ([…] stock solutions were mixed according to the ratio, pipetted onto a micro titer plate (MTP) and diluted with water to the stated concentrations. A spore suspension of Pyrenophora teres in an aqueous biomalt or yeast-bactopeptone-glycerine solution was then added. The plates were placed in a water vapor-saturated chamber at a temperature of 18° C. Using an absorption photometer, the MTPs were measured at 405 nm 7 days after the inoculation. The measured parameters were compared to the growth of the active compound-free control variant (100%) and the fungus-free and active compound-free blank value to determine the relative growth in % of the pathogens in the respective active compounds.

Septoria tritici [2] = assay: Green house: curative control of leaf blotch on wheat caused by Septoria tritici (Septtr K7); type: in vivo; details: sprayed 7 days after inoculation, % diseased leaf area, untreated control 80
Protocol: The spray solutions were prepared in several steps: The stock solution were prepared: a mixture of acetone and/or dimethylsulfoxide and the wetting agent/emulsifier Wettol, which is based on ethoxylated alkylphenoles, in a relation (volume) solvent-emulsifier of 99 to 1 was added to 25 mg of the compound to give a total of 5 ml. Water was then added to total volume of 100 ml. This stock solution was diluted with the described solvent-emulsifier-water mixture to the given concentration. G1 Curative control of leaf blotch on wheat caused by Septoria tritici (Septtr K7) Leaves of pot-grown wheat seedling were inoculated with an aqueous spore suspension of Septoria tritici. Then the trial plants were immediately transferred to a humid chamber at 18-22° C. and a relative humidity close to 100%. After 4 days the plants were transferred to a chamber with 18-22° C. and a relative humidity close to 70%. Seven days after inoculation the plants were sprayed to run-off with an aqueous suspension of the active compound or their mixture, prepared as described. Then the plants were transferred back to the chamber with 18-22° C. and a relative humidity close to 70%. After 4 weeks the extent of fungal attack on the leaves was visually assessed as % diseased leaf area.

SMILES | Growth 0 (%) at 0.002 ppm Septtr (Septoria tritici [1]) | Growth (%) at 0.5 ppm Pyrior (Pyriculana oryzae) | Growth (%) at 8 ppm Pymte (Pyrenophora teres) | Growth (%) at 2 ppm Pyrior (Pyriculana oryzae) | Disease (%) at 250 ppm Septtr K7 (Septoria tritici [2]) | Growth (%) at 8 ppm Pymte (Pyrenophora teres; relative growth vs control (100%), 7 days after inoculation)
COC(Cn1cncn1)c1ccc(Oc2ccc(Cl)cc2)cc1Cl (stereo not shown) | 72% |  |  |  |  | 
CCC(Cn1cncn1)(OC)c1ccc(Oc2ccc(Cl)cc2)cc1Cl (stereo not shown) |  | 47% | 39% |  |  | 
CC(O)(Cn1cncn1)c1ccc(Oc2ccc(Cl)cc2)cc1Cl (stereo not shown) |  |  | 62% | 23% |  | 
COC(Cn1cncn1)(c1ccc(Oc2ccc(Cl)cc2)cc1Cl)C1CC1 (stereo not shown) [I-1, 1-[2-[2-chloro-4-(4-chlorophenoxy)phenyl]-2-cyclopropyl-2-methoxy-ethyl]-1,2,4-triazole] | 10% | 21% |  | 0% | 1% | 12%

Reference: patent US20140187422A1, “Fungicidal substituted 1--1H-[1,2,4]triazole compounds” (BASF SE, priority 2011, published 2014)
